Measured values as given in PubChem BioAssay (NCI).
Several values for one entry are separate records, joined by “and”; a condition that tells them apart may be missing. Equal entries are not always repeated.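 In this assay, cells in 96-well plates receive the compound at five concentrations for 48 hours. Endpoints are linearly interpolated between the surrounding concentrations. Abbreviation: GI50, concentration required for 50% inhibition of growth. TGI: concentration producing complete growth inhibition.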

Key:
Test in all cases: DTP human tumour cell line panel, 48 h
RPMI-8226 leukemia = system: RPMI-8226 leukemia
M14 melanoma = system: M14 melanoma
COLO 205 colon = system: COLO 205 colon
SK-MEL-2 melanoma = system: SK-MEL-2 melanoma
HL-60(TB) leukemia = system: HL-60(TB) leukemia
HCT-116 colon = system: HCT-116 colon
HCC-2998 colon = system: HCC-2998 colon
SW-620 colon = system: SW-620 colon
MCF7 breast = system: MCF7 breast
NCI/ADR-RES ovarian = system: NCI/ADR-RES ovarian

SMILES | TGI (RPMI-8226 leukemia) [µM] | TGI (M14 melanoma) | TGI (COLO 205 colon) | TGI (SK-MEL-2 melanoma) [µM] | TGI (HL-60(TB) leukemia) | TGI (HCT-116 colon) [µM] | TGI (HCC-2998 colon) [µM] | TGI (SW-620 colon) [µM] | TGI (MCF7 breast) [µM] | TGI (NCI/ADR-RES ovarian) [µM] | GI50 (SW-620 colon) | GI50 (M14 melanoma) | GI50 (MCF7 breast) | GI50 (COLO 205 colon) | GI50 (SK-MEL-2 melanoma) [µM] | GI50 (HL-60(TB) leukemia) | GI50 (HCT-116 colon) | GI50 (NCI/ADR-RES ovarian) [µM] | GI50 (HCC-2998 colon) | GI50 (RPMI-8226 leukemia)
CCCCN(CCCC)CC(C(=O)Nc1ccc([N+](=O)[O-])cc1[N+](=O)[O-])/C(C)=N\NC(=O)C[N+](C)(C)C (centres undefined) | 73.8 | > 100 µM | > 100 µM | > 100 | > 100 µM | > 100 | > 100 | – | – | – | – | – | – | – | – | – | – | – | – | –
O=C(O)c1ccc(Oc2nc3ccccc3s2)cc1 | > 100 | > 100 µM | > 100 µM | > 100 | > 100 µM | > 100 | – | > 100 | > 100 | > 100 | – | – | – | – | – | – | – | – | – | –
CCc1cccc(CC)c1NC(=O)CC1SC(N)=NC1=O (centres undefined) | > 100 | > 100 µM | > 100 µM | > 100 | > 100 µM | > 100 | > 100 | > 100 | – | – | – | – | – | – | – | – | – | – | – | –
O=C(NS(=O)(=O)c1ccc(NC[C@H]2COCCO2)c([N+](=O)[O-])c1)c1ccc(N2CCN(CC3=C(c4ccc(Cl)cc4)CC4(CCC4)CC3)CC2)cc1Oc1cnc2[nH]ccc2c1 | – | 4.99 µM | 3.4 µM | 3.4 | 4.83 µM | 12.5 | 3.23 | 6.6 | 10.4 | 24.9 | 2.47 µM | 2.11 µM | 2.29 µM | 1.85 µM | 1.77 | 1.6 µM | 2.69 µM | 4.88 | 1.78 µM | –
C=C1c2[nH]c3ccccc3c2CC(C(=O)O)N1C(O)c1ccc(S(=O)(=O)O)cc1 (centres undefined) | > 100 | > 100 µM | – | > 100 | > 100 µM | > 100 | > 100 | > 100 | – | – | – | – | – | – | – | – | – | – | – | –
O=C1C(=C([O-])c2ccccc2)C(=O)c2ccccc21.O=C1C(=C([O-])c2ccccc2)C(=O)c2ccccc21.[Co+2] | > 100 | > 100 µM | > 100 µM | – | – | > 100 | > 100 | > 100 | – | – | > 100 µM | > 100 µM | – | 38.5 µM | – | – | > 100 µM | – | > 100 µM | > 100 µM
CC(=O)Oc1c(Br)ccc2cc(C(Br)Br)c(C(=O)c3ccccc3)nc12 | – | 40.8 µM | 52.7 µM | 48.2 | – | 42.9 | 32.6 | 48.2 | – | – | – | – | – | – | – | – | – | – | – | –
O=C1NC(=O)C2C1C1C=C3c4ccccc4N(c4ccccc4)C32[C@H]2C(=O)NC(=O)[C@@H]12 (some centres undefined) | > 100 | > 100 µM | > 100 µM | > 100 | > 100 µM | > 100 | > 100 | > 100 | – | – | – | – | – | – | – | – | – | – | – | –
CC(=O)OCC1OC([Se-])C(OC(C)=O)C(OC(C)=O)C1OC(C)=O.N#CCC[PH+](CCC#N)CCC#N.[Au+] (centres undefined) | 14.4 | 18.3 µM | > 100 µM | 48.4 | 4.31 µM | > 50.2 | 43.4 | > 89 | – | – | 4.75 µM | 3.63 µM | – | 17.6 µM | 11.8 | 1.87 µM | 3.85 µM | – | 12.5 µM | 3.09 µM
O=c1[nH]c2ccccc2n2cc3ccccc3c12 | 22.6 | 22.9 µM | > 100 µM | 38.8 | – | 12.3 | 20.8 | > 100 | > 100 | 32.1 | 3.69 µM | 6.39 µM | 10.5 µM | 4.52 µM | 20.6 | – | 2.12 µM | 6.45 | 5.84 µM | 3.7 µM
N#Cc1c2ccccc2c2nnc3ccc(C(F)(F)F)cc3n12 | > 100 | – | > 100 µM | 85.2 | > 100 µM | > 100 | – | > 100 | > 100 | > 100 | 66.7 µM | – | 27.6 µM | 39.4 µM | 23.5 | 40 µM | 58.4 µM | 72.7 | – | 29.4 µM
O=C([O-])CCc1ccccc1.O=C([O-])CCc1ccccc1.O=C([O-])CCc1ccccc1.O=C([O-])CCc1ccccc1.[Mo+2].[Mo+2] | > 100 | > 100 µM | > 100 µM | > 100 | > 100 µM | > 100 | > 100 | > 100 | – | – | > 100 µM | > 100 µM | – | > 100 µM | > 100 | > 100 µM | > 100 µM | – | > 100 µM | > 100 µM
COC(=O)[C@@H](C)C[C@H](Cc1ccccc1)NC(=O)c1csc([C@@H](C[C@H](C(C)C)N(C)C(=O)C2(NC(=O)[C@H]3CCCCN3C)CCC2)OC(C)=O)n1 | > 25 | 0.0564 µM and 0.0107 µM | 0.12 µM and 0.0182 µM | – | 0.00569 µM and < 0.0025 µM | 2.52 | > 25 | > 25 | > 25 | > 25 | 0.00513 µM and 0.0025 µM | 0.00413 µM and 0.0025 µM | 0.000508 µM and 0.0025 µM | 0.00335 µM and 0.0025 µM | – | 0.00116 µM and < 0.0025 µM | 0.00447 µM and 0.0025 µM | 16.9 | 0.00501 µM and 0.00628 µM | 0.00259 µM and 0.0025 µM
NC(=S)N/N=C(\CCC(=O)Nc1ccccc1[N+](=O)[O-])CC(=O)c1ccco1 | > 100 | > 100 µM | > 100 µM | > 100 | > 100 µM | > 100 | > 100 | > 100 | – | – | – | – | – | – | – | – | – | – | – | –
O=c1c(O)cc2c(O)oc3c(=O)c(O)c(O)c4c(O)oc1c2c43 | > 100 | > 100 µM | > 100 µM | > 100 | > 100 µM | > 100 | > 100 | > 100 | – | – | – | – | – | – | – | – | – | – | – | –
O=c1nc(N2CCCC2)nc(N2CCCC2)s1 | > 100 | > 100 µM | – | > 100 | > 100 µM | > 100 | > 100 | > 100 | – | – | – | – | – | – | – | – | – | – | – | –
N#Cc1c(-c2ccccc2)cc(-c2cccs2)c(C#N)c1N | > 100 | > 100 µM | – | – | > 100 µM | > 100 | > 100 | > 100 | – | – | – | – | – | – | – | – | – | – | – | –
CC(=O)N(CCN1C(=O)c2ccccc2C1=O)CCN1C(=O)c2ccccc2C1=O | > 100 | > 100 µM | > 100 µM | > 100 | > 100 µM | > 100 | > 100 | > 100 | – | – | – | – | – | – | – | – | – | – | – | –
CCC1c2cc3n(c(=O)c2COC1O)Cc1c-3nc2ccccc2c1Cl (centres undefined) | > 100 | > 75 µM | > 100 µM | > 100 | > 100 µM | > 100 | > 100 | > 100 | – | – | – | – | – | – | – | – | – | – | – | –
